Measurements taken from publication PMC8617627, “Novel DYRK1A Inhibitor Rescues Learning and Memory Deficits in a Mouse Model of Down Syndrome” (Pharmaceuticals, 2021).
Read-outs that look alike come from different tables or passages of the source.

Experiments:
Assay in all cases: Kinase profile (33P ATP filter binding)
Assay type in all cases: biochemical
JNK2 = JNK2 (Homo sapiens, UniProt P45984)
MKK1 = MKK1 (Homo sapiens, UniProt Q02750); details: read-out: Remaining protein kinase activity
ERK1 = ERK1 (Homo sapiens, UniProt P27361); details: read-out: Remaining protein kinase activity
ULK1 = molecular target: T1, ULK1 (Homo sapiens, UniProt O75385)
T1 sequence (O75385 1-1050): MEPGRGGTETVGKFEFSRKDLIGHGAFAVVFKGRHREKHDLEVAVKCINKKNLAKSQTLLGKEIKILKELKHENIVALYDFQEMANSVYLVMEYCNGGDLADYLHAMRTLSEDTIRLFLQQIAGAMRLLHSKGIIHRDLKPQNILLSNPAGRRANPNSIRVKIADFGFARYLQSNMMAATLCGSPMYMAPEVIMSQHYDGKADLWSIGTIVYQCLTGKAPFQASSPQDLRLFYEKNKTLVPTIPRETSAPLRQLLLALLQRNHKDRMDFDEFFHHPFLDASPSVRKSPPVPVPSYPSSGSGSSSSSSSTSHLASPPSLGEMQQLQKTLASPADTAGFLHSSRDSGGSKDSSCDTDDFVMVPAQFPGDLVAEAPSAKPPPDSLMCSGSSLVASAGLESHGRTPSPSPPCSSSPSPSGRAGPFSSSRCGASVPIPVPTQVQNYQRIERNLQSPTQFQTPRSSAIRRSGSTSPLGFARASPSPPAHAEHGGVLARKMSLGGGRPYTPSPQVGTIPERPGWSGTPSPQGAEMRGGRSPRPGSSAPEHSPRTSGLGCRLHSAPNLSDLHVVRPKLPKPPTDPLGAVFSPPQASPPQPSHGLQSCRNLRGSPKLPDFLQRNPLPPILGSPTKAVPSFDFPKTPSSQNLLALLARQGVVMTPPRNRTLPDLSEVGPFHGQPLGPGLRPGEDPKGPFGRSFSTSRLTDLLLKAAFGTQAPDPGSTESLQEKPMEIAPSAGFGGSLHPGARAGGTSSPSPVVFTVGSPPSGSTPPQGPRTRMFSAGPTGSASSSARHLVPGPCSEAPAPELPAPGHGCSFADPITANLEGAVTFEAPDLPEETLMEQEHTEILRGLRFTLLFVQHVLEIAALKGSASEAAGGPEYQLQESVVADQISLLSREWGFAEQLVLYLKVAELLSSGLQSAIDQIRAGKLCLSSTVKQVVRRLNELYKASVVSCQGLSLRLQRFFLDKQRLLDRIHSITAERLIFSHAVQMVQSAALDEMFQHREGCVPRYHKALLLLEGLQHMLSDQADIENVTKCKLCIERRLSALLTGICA

IRAK4 = molecular target: T2, IRAK4 (Homo sapiens, UniProt Q9NWZ3)
T2 sequence (Q9NWZ3 1-460): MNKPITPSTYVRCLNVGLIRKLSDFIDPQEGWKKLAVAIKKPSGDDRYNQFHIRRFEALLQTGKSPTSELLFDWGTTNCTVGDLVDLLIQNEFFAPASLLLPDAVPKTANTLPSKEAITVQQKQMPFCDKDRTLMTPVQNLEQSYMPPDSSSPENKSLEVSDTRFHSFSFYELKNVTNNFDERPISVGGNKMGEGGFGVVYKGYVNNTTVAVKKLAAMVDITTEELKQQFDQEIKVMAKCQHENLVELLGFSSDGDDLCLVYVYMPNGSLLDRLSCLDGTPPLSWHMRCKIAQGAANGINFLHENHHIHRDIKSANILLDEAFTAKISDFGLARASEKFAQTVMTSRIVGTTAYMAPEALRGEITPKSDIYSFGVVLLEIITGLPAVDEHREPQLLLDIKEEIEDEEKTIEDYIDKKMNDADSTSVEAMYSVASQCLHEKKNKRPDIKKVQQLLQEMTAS

MLK1 = MLK1 (Homo sapiens, UniProt P80192); details: read-out: Remaining protein kinase activity
RIPK2 = RIPK2 (Homo sapiens, UniProt O43353); details: read-out: Remaining protein kinase activity
PAK5 = PAK5 (Homo sapiens, UniProt Q9P286); details: read-out: Remaining protein kinase activity
TAK1 = molecular target: T3, TAK1 (Homo sapiens, UniProt O43318); details: read-out: Remaining protein kinase activity
T3 sequence (O43318 1-303 limits assumed): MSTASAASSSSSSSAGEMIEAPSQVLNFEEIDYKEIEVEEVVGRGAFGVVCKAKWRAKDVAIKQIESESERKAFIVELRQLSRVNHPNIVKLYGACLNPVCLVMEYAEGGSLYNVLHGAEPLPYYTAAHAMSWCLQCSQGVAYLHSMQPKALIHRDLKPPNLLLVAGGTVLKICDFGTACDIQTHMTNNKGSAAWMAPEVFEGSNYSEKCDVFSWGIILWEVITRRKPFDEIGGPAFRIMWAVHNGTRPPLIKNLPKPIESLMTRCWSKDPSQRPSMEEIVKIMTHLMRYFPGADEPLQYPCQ

AMPK (hum) = AMPK (hum) (Homo sapiens, UniProt Q13131); details: read-out: Remaining protein kinase activity
AMPK (hum), sequence (Q13131 whole entry): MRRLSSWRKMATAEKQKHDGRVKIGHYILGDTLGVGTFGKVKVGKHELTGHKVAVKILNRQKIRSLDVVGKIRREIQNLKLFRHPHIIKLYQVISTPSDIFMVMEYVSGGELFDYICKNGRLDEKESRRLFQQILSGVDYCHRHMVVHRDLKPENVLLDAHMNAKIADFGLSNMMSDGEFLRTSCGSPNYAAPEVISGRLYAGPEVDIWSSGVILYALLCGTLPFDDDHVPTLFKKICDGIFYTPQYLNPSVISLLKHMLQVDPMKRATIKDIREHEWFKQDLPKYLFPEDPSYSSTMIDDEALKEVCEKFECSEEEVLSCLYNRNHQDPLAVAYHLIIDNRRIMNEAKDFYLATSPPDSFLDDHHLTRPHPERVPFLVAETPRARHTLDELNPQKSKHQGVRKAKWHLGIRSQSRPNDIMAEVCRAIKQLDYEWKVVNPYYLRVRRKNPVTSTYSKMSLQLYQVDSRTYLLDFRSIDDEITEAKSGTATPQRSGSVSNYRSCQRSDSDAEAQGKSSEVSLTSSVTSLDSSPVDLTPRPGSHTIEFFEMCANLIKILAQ
AMPK (hum), sequence (O43741 whole entry partner): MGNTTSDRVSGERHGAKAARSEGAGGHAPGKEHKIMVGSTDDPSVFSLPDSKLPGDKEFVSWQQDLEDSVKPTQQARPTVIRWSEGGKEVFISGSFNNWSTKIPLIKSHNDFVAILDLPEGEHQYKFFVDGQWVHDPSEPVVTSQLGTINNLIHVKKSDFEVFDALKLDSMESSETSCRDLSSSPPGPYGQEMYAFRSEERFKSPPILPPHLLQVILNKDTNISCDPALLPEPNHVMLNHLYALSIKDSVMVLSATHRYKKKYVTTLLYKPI
AMPK (hum), sequence (P54619 whole entry partner): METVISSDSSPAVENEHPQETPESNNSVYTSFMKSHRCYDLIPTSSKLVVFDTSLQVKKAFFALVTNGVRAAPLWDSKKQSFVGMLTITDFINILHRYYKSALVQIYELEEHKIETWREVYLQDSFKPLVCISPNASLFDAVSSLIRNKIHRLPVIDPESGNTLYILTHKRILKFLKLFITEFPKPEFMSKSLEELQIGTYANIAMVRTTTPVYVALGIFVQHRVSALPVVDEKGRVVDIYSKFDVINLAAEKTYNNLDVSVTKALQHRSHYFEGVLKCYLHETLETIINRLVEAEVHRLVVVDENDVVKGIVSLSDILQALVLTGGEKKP

PAK5, sequence (Q9P286 whole entry): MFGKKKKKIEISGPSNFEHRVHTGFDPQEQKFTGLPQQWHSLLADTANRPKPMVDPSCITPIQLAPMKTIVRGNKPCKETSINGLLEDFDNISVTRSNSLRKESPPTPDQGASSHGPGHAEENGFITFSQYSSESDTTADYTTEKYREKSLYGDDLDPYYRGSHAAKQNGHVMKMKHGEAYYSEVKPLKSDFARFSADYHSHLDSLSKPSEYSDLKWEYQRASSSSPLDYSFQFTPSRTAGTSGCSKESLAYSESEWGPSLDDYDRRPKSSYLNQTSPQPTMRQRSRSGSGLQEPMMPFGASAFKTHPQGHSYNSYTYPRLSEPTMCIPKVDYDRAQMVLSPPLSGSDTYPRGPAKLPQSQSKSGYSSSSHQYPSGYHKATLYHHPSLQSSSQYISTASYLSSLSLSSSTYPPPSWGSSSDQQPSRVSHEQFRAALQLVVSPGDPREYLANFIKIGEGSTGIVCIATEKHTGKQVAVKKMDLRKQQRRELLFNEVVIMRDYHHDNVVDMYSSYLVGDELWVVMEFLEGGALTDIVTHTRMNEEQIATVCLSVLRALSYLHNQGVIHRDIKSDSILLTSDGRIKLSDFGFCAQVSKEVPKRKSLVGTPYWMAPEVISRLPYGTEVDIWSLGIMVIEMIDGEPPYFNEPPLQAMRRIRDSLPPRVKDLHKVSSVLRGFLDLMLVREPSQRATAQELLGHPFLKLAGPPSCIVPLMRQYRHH
MKK1, sequence (Q02750 whole entry, species assumed): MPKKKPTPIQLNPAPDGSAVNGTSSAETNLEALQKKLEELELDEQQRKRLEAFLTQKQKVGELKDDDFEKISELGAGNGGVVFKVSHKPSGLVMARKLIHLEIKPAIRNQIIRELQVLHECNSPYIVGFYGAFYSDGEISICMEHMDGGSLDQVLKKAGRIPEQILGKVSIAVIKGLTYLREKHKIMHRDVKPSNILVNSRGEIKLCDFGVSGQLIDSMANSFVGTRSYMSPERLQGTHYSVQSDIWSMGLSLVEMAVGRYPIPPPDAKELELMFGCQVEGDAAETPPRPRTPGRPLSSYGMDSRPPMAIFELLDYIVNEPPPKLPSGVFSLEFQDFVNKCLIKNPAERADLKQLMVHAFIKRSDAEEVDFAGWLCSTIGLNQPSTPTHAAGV
ERK1, sequence (P27361 whole entry, species assumed): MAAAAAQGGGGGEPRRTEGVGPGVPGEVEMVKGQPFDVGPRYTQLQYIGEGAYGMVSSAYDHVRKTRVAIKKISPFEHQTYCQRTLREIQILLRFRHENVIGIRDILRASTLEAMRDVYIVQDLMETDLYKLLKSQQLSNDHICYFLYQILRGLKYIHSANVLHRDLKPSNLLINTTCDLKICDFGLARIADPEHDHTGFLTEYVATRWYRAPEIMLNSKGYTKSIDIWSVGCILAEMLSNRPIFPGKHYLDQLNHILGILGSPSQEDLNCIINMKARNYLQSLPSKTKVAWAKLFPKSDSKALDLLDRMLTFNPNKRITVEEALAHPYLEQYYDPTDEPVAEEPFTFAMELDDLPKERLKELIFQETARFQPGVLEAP
MLK1, sequence (P80192 whole entry): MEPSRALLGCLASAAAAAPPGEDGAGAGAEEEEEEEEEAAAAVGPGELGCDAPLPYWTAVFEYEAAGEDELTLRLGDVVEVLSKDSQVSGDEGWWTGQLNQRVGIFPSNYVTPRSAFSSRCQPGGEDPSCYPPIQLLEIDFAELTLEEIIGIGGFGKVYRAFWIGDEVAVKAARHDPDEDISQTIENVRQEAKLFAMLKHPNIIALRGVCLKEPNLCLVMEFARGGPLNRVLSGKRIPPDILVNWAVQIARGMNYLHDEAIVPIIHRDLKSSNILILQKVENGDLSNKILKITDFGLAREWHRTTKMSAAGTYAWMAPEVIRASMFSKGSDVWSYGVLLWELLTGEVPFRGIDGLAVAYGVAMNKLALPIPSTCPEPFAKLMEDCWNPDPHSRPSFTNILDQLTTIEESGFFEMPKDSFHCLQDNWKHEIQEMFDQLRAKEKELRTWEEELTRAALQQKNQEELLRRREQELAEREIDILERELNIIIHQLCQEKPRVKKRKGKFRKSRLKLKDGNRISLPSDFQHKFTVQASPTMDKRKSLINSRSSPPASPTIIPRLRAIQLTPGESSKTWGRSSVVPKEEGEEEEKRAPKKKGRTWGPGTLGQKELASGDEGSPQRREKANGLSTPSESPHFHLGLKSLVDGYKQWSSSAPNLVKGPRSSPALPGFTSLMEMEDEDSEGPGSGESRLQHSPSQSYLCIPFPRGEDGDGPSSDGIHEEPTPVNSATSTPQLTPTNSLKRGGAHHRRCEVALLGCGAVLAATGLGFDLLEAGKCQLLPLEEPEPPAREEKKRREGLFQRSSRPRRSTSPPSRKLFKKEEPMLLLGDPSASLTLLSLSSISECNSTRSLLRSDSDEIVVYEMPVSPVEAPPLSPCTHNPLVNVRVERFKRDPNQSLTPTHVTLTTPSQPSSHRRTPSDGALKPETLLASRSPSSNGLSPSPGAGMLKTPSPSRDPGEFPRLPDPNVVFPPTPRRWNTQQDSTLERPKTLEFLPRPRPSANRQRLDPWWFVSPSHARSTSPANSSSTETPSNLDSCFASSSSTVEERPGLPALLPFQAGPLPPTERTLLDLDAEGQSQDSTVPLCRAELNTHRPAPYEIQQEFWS
RIPK2, sequence (O43353 whole entry): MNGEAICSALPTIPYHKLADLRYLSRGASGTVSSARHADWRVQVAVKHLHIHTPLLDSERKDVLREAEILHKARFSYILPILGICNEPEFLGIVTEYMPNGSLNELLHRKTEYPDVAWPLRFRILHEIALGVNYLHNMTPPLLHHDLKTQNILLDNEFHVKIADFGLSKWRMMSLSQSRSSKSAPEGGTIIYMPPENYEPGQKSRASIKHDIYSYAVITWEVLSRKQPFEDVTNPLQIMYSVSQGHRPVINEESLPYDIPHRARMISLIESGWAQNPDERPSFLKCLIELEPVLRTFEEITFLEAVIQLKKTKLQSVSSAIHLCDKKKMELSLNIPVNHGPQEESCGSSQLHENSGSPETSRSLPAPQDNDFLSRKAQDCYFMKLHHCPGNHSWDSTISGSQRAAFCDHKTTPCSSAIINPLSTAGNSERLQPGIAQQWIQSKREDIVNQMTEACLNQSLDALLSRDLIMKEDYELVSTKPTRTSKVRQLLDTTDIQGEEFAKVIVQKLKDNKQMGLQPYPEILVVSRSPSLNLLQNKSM
JNK2, sequence (P45984 whole entry, species assumed): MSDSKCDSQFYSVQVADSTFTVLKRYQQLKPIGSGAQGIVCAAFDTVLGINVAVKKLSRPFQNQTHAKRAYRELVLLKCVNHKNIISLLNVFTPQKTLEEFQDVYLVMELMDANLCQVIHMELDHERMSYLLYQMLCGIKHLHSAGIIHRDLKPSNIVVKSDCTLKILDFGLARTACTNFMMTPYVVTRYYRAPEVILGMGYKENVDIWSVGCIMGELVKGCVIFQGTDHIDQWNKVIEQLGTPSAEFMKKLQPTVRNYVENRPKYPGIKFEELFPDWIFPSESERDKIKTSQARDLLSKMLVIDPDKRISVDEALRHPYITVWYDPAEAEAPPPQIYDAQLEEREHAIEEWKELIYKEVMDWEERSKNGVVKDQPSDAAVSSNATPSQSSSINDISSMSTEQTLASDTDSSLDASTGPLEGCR

**Q.** `COc1ccc2sc(-c3cncc(NC(C)=O)c3)nc2c1` [PST-001, N-(5-(5-Methoxybenzo[d]thiazol-2-yl)pyridin-3-yl)acetamide] was tested. Which “Remaining protein kinase activity” value (JNK2; 1 μM) did it give?
**A.** 126%

**Q.** What about the “Remaining protein kinase activity” value (JNK2; 100 μM) of the same compound?
**A.** 129%

**Q.** What about the remaining activity at 1 µM (MKK1) of the same compound?
**A.** 117%

**Q.** What about the remaining activity at 100 µM (MKK1) of the same compound?
**A.** 135%

**Q.** What about the remaining activity at 1 µM (ERK1) of the same compound?
**A.** 109%

**Q.** What about the remaining activity at 100 µM (ERK1) of the same compound?
**A.** 108%

**Q.** What about the “Remaining protein kinase activity” value (ULK1; 1 μM) of the same compound?
**A.** 129%

**Q.** What about the “Remaining protein kinase activity” value (ULK1; 100 μM) of the same compound?
**A.** 120%

**Q.** And the “Remaining protein kinase activity” value (IRAK4; 1 μM)?
**A.** 88%

**Q.** And the “Remaining protein kinase activity” value (IRAK4; 100 μM)?
**A.** 32%

**Q.** What about the remaining activity at 1 µM (MLK1) of the same compound?
**A.** 108%

**Q.** What about the remaining activity at 100 µM (MLK1) of the same compound?
**A.** 96%

**Q.** And the remaining activity at 1 µM (RIPK2)?
**A.** 109%

**Q.** And the remaining activity at 1 µM (PAK5)?
**A.** 113%

**Q.** And the remaining activity at 100 µM (PAK5)?
**A.** 129%

**Q.** What about the remaining activity at 1 µM (TAK1) of the same compound?
**A.** 48%

**Q.** And the remaining activity at 100 µM (TAK1)?
**A.** 63%

**Q.** What about the remaining activity at 1 µM (AMPK (hum)) of the same compound?
**A.** 99%

**Q.** And the remaining activity at 100 µM (AMPK (hum))?
**A.** 69%

**Q.** Which “Remaining protein kinase activity” value (JNK2; 1 μM) does the source give for `COc1ccc2sc(-c3cncc(N)c3)nc2c1` [compound 1, 5-(5-Methoxybenzo[d]thiazol-2-yl)pyridin-3-amine] here?
**A.** 123%

**Q.** What about the “Remaining protein kinase activity” value (JNK2; 100 μM) of the same compound?
**A.** 104%

**Q.** And the remaining activity at 1 µM (MKK1; MKK1, 1 μM)?
**A.** 101%

**Q.** What about the remaining activity at 100 µM (MKK1; MKK1, 100 μM) of the same compound?
**A.** 84%

**Q.** And the remaining activity at 1 µM (ERK1; ERK1, 1 μM)?
**A.** 99%

**Q.** And the remaining activity at 100 µM (ERK1; ERK1, 100 μM)?
**A.** 81%

**Q.** And the “Remaining protein kinase activity” value (ULK1; 1 μM)?
**A.** 116%

**Q.** And the “Remaining protein kinase activity” value (ULK1; 100 μM)?
**A.** 77%

**Q.** And the “Remaining protein kinase activity” value (IRAK4; 1 μM)?
**A.** 85%

**Q.** What about the “Remaining protein kinase activity” value (IRAK4; 100 μM) of the same compound?
**A.** 18%

**Q.** What about the remaining activity at 1 µM (MLK1; MLK1, 1 μM) of the same compound?
**A.** 106%

**Q.** What about the remaining activity at 100 µM (MLK1; MLK1, 100 μM) of the same compound?
**A.** 16%

**Q.** And the remaining activity at 1 µM (RIPK2; RIPK2, 1 μM)?
**A.** 104%

**Q.** And the remaining activity at 100 µM (RIPK2; RIPK2, 100 μM)?
**A.** 20%

**Q.** And the remaining activity at 1 µM (PAK5; PAK5, 1 μM)?
**A.** 111%

**Q.** What about the remaining activity at 100 µM (PAK5; PAK5, 100 μM) of the same compound?
**A.** 70%

**Q.** And the remaining activity at 1 µM (TAK1; TAK1, 1 μM)?
**A.** 70%

**Q.** And the remaining activity at 100 µM (TAK1; TAK1, 100 μM)?
**A.** 6%

**Q.** And the remaining activity at 1 µM (AMPK (hum); AMPK (hum), 1 μM)?
**A.** 107%

**Q.** And the remaining activity at 100 µM (AMPK (hum); AMPK (hum), 100 μM)?
**A.** 46%
